For one experiment, the target named is CK1ε (Homo sapiens, UniProt P49674). Nature of the experiment: CK1ε kinase assay (Caliper LabChip electrophoretic separation of fluoresceinated peptide substrate and product). It counts as biochemical. As to conditions: 200 pM CK1ε, 50 μM ATP, 1.5 μM peptide, 22 hours at room temperature. The procedure, abridged: (§1)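 Kinase reactions ran 22 h at room temperature, were stopped with EDTA, and phosphorylated product was separated electrophoretically from unphosphorylated fluoresceinated peptide. Compounds were tested at eleven concentrations from 10 mM DMSO stocks. IC50 by non-linear regression.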
CK1ε, sequence (P49674 whole entry): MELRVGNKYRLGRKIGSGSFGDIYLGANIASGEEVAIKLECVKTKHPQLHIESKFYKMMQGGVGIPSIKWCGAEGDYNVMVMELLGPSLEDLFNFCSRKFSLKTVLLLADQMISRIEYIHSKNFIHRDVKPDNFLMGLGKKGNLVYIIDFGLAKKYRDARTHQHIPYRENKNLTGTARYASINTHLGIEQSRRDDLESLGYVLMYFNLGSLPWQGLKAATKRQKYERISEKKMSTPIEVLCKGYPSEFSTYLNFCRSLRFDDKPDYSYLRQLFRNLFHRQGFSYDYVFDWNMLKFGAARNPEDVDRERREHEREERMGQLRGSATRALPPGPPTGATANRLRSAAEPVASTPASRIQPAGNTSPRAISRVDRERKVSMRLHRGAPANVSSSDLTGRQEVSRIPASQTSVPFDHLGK

The target in the next experiment is CK1δ (Homo sapiens, UniProt P48730). Briefly: CK1δ kinase assay (Caliper LabChip electrophoretic separation of fluoresceinated peptide substrate and product). As to conditions: 200 pM CK1δ, 50 μM ATP, 1.5 μM peptide, 22 hours at room temperature. It counts as biochemical. The procedure, abridged:
as §1

Each structure is given as a SMILES string. Read-outs that look alike come from different tables or passages of the source.

CK1δ, sequence (P48730 whole entry): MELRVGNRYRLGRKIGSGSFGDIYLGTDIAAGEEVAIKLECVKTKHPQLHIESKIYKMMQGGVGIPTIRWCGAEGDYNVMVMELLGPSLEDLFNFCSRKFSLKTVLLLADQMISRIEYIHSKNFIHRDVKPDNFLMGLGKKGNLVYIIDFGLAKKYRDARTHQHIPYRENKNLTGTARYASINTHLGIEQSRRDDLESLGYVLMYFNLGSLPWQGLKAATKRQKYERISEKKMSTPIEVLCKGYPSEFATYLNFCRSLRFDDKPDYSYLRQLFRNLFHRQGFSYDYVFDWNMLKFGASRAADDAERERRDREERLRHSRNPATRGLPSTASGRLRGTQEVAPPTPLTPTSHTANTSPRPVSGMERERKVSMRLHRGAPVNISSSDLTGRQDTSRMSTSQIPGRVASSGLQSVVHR

As for `NC(=O)c1c(-c2ccc(Cl)c(Cl)c2)nn2c1CN(C(=O)N[C@H]1C[C@@H](F)C1)CC2` [Compound 203, 2-(3,4-Dichlorophenyl)-N^5-((1s,3s)-3-fluorocyclobutyl)-6,7-dihydropyrazolo[1,5-a] pyrazine-3,5(4H)-dicarboxamide], the IC50 on CK1ε (read-out: CK1ε IC50 range) and at CK1δ (read-out: CK1δ IC50 range) was 0.01 to 10 nM each time.
As to `CC1(NC(=O)N2CCn3nc(-c4cccc(Cl)c4)c(C(N)=O)c3C2)CC2(C1)CC2(F)F` (single isomer, unassigned) [Compound 331, 2-(3-Chlorophenyl)-N^5-(1,1-difluoro-5-methylspiro[2.3]hexan-5-yl)-6,7-dihydropyrazolo[1,5-a]pyrazine-3,5(4H)-dicarboxamide], the IC50 at CK1ε (read-out: CK1ε IC50 range) and on CK1δ (read-out: CK1δ IC50 range) was 0.01 to 10 nM each time.
For `CC1(NC(=O)N2CCn3nc(-c4ccc(F)c(Cl)c4)c(C(N)=O)c3C2)CC2(C1)CC2(F)F` (single isomer, unassigned) [Compound 326, 2-(3-Chloro-4-fluorophenyl)-N5-(1,1-difluoro-5-methylspiro[2.3]hexan-5-yl)-6,7-dihydropyrazolo[1,5-a]pyrazine-3,5(4H)-dicarboxamide], the IC50 at CK1ε (read-out: CK1ε IC50 range) and on CK1δ (read-out: CK1δ IC50 range) was 0.01 to 10 nM throughout.
As to `COC12CCC(NC(=O)N3CCn4nc(-c5ccc(F)c(Cl)c5)c(C(N)=O)c4C3)(CC1)C2` [Compound A63, 2-(3-Chloro-4-fluorophenyl)-N^5-(4-methoxybicyclo[2.2.1]heptan-1-yl)-6,7-dihydropyrazolo[1,5-a]pyrazine-3,5(4H)-dicarboxamide], the IC50 at CK1ε (read-out: CK1ε IC50 range) and at CK1δ (read-out: CK1δ IC50 range) was 0.01 to 10 nM in each case.
With `CC1(NC(=O)N2CCn3nc(-c4ccc(Cl)c(Cl)c4)c(C(N)=O)c3C2)CC2(C1)CC2(F)F` (single isomer, unassigned) [Compound 328, 2-(3,4-Dichlorophenyl)-N^5-(1,1-difluoro-5-methylspiro[2.3]hexan-5-yl)-6,7-dihydropyrazolo[1,5-a]pyrazine-3,5(4H)-dicarboxamide], the IC50 at CK1ε (read-out: CK1ε IC50 range) and at CK1δ (read-out: CK1δ IC50 range) was 0.01 to 10 nM throughout.
As for `CC1Cn2nc(-c3ccc(F)c(Cl)c3)c(C(N)=O)c2CN1C(=O)NC(C)(C)C` (single isomer, unassigned) [Compound 340, N^5-(tert-Butyl)-2-(3-chloro-4-fluorophenyl)-6-methyl-6,7-dihydropyrazolo[1,5-a]pyrazine-3,5(4H)-dicarboxamide], the figures for the IC50 at CK1ε (read-out: CK1ε IC50 range) and on CK1δ (read-out: CK1δ IC50 range) were 10 to 100 nM and 0.01 to 10 nM, respectively.
Regarding `NC(=O)c1c(-c2ccc(Cl)c(Cl)c2)nn2c1CN(C(=O)NCC1CCC(F)(F)CC1)CC2` [Compound 206, 2-(3,4-Dichlorophenyl)-N^5-((4,4-difluorocyclohexyl)methyl)-6,7-dihydropyrazolo[1,5-a] pyrazine-3,5(4H)-dicarboxamide], the IC50 on CK1ε (read-out: CK1ε IC50 range) and at CK1δ (read-out: CK1δ IC50 range) was 0.01 to 10 nM throughout.
As to `CC1(NC(=O)N2CCn3nc(-c4cccc(F)c4)c(C(N)=O)c3C2)CC1` [Compound 11, 2-(3-Fluorophenyl)-N^5-(1-methylcyclopropyl)-6,7-dihydropyrazolo[1,5-a]pyrazine-3,5(4H)-dicarboxamide], the IC50 on CK1ε (read-out: CK1ε IC50 range) and at CK1δ (read-out: CK1δ IC50 range) was 10 to 100 nM each time.
Regarding `NC(=O)c1c(-c2ccc(F)c(Cl)c2)nn2c1CN(C(=O)NC1CC(F)(F)C1)CC21CC1` [Compound A133, 2′-(3-Chloro-4-fluorophenyl)-N^5′-(3,3-difluorocyclobutyl)-4′H-spiro[cyclopropane-1,7′-pyrazolo[1,5-a]pyrazine]-3′,5′(6′H)-dicarboxamide], the IC50 on CK1ε (read-out: CK1ε IC50 range) and at CK1δ (read-out: CK1δ IC50 range) was 0.01 to 10 nM each time.
Turning to `COC12CCC(NC(=O)N3CCn4nc(-c5cccc(Cl)c5)c(C(N)=O)c4C3)(CC1)C(=O)C2` [Compound A76, 2-(3-Chlorophenyl)-N^5-(4-methoxy-2-oxobicyclo[2.2.2]octan-1-yl)-6,7-dihydropyrazolo[1,5-a]pyrazine-3,5(4H)-dicarboxamide], the IC50 at CK1ε (read-out: CK1ε IC50 range) and on CK1δ (read-out: CK1δ IC50 range) was 0.01 to 10 nM each time.
With `NC(=O)c1c(-c2ccc(F)c(Cl)c2)nn2c1CN(C(=O)NC1(c3cccnc3)CC(F)(F)C1)CC2` [Compound 311, 2-(3-Chloro-4-fluorophenyl)-N^5-(3,3-difluoro-1-(pyridin-3-yl)cyclobutyl)-6,7-dihydropyrazolo[1,5-a]pyrazine-3,5(4H)-dicarboxamide], the IC50 on CK1ε (read-out: CK1ε IC50 range) and on CK1δ (read-out: CK1δ IC50 range) was 0.01 to 10 nM throughout.
Turning to `CC1(NC(=O)N2Cc3c(C(N)=O)c(-c4ccc(F)c(Cl)c4)nn3CC2C2CC2)CC(F)(F)C1` (single isomer, unassigned) [Compound 349, 2-(3-Chloro-4-fluorophenyl)-6-cyclopropyl-N^5-(3,3-difluoro-1-methylcyclobutyl)-6,7-dihydropyrazolo[1,5-a]pyrazine-3,5(4H)-dicarboxamide], the IC50 is 20.1 nM at CK1ε (read-out: CK1ε), 10 to 100 nM on CK1ε (read-out: CK1ε IC50 range), 34.2 nM on CK1δ (read-out: CK1δ) and 10 to 100 nM at CK1δ (read-out: CK1δ IC50 range).
On to `CC1(NC(=O)N2CCn3nc(-c4cc(F)cc(Cl)c4)c(C(N)=O)c3C2)CC(F)(F)C1` [Compound 300, 2-(3-Chloro-5-fluorophenyl)-N^5-(3,3-difluoro-1-methylcyclobutyl)-6,7-dihydropyrazolo[1,5-a]pyrazine-3,5(4H)-dicarboxamide], for which the IC50 on CK1ε (read-out: CK1ε IC50 range) and at CK1δ (read-out: CK1δ IC50 range) was 0.01 to 10 nM throughout.
Consider `CC12CC3CC(C)(C1)CC(NC(=O)N1CCn4nc(-c5ccc(Cl)c(Cl)c5)c(C(N)=O)c4C1)(C3)C2` [Compound A92, 2-(3,4-Dichlorophenyl)-N^5-((1r,3R,5S,7r)-3,5-dimethyladamantan-1-yl)-6,7-dihydropyrazolo[1,5-a]pyrazine-3,5(4H)-dicarboxamide], for which the IC50 at CK1ε (read-out: CK1ε IC50 range) and on CK1δ (read-out: CK1δ IC50 range) was 0.01 to 10 nM throughout.
On to `NC(=O)c1c(-c2ccc(Cl)c(Cl)c2)nn2c1CN(C(=O)NC1CC3(C1)CC3(F)F)CC2` (single isomer, unassigned) [Compound 324, 2-(3,4-Dichlorophenyl)-N^5-(1,1-difluorospiro[2.3]hexan-5-yl)-6,7-dihydropyrazolo[1,5-a]pyrazine-3,5(4H)-dicarboxamide], for which the IC50 at CK1ε (read-out: CK1ε IC50 range) and at CK1δ (read-out: CK1δ IC50 range) was 0.01 to 10 nM throughout.
For `CC(C)NC(=O)N1CCn2nc(-c3ccc(F)cc3)c(C(N)=O)c2C1` [Compound 2, 2-(4-Fluorophenyl)-N^5-isopropyl-6,7-dihydropyrazolo[1,5-a]pyrazine-3,5(4H)-dicarboxamide], the IC50 at CK1ε (read-out: CK1ε IC50 range) and on CK1δ (read-out: CK1δ IC50 range) was 10 to 100 nM throughout.
For `COc1ccc([C@H]2C[C@@H](NC(=O)N3CCn4nc(-c5cccc(Cl)c5)c(C(N)=O)c4C3)C2)cc1` [Compound 281, 2-(3-Chlorophenyl)-N^5-((1s,3s)-3-(4-methoxyphenyl)cyclobutyl)-6,7-dihydropyrazolo[1,5-a] pyrazine-3,5(4H)-dicarboxamide], the IC50 on CK1ε (read-out: CK1ε IC50 range) and on CK1δ (read-out: CK1δ IC50 range) was 0.01 to 10 nM throughout.
Consider `CC(C)(C)NC(=O)N1CCn2nc(-c3cnc(N4CCOCC4)nc3)c(C(N)=O)c2C1` [Compound 147, N^5-(tert-Butyl)-2-(2-morpholinopyrimidin-5-yl)-6,7-dihydropyrazolo[1,5-a] pyrazine-3,5(4H)-dicarboxamide], for which the IC50 at CK1ε (read-out: CK1ε IC50 range) and at CK1δ (read-out: CK1δ IC50 range) was 100 to 2000 nM in each case.
For the compound `CC(C)(C)NC(=O)N1CCn2nc(-c3ccc(S(C)(=O)=O)cc3)c(C(N)=O)c2C1` [Compound 144, N^5-(tert-Butyl)-2-(4-(methylsulfonyl)phenyl)-6,7-dihydropyrazolo[1,5-a] pyrazine-3,5(4H)-dicarboxamide], the IC50 at CK1ε (read-out: CK1ε IC50 range) and on CK1δ (read-out: CK1δ IC50 range) was 100 to 2000 nM throughout.
Take `CC1(NC(=O)N2CCn3nc(-c4ccc(F)c(Cl)c4)c(C(N)=O)c3C2)CC(C(F)F)C1` (single isomer, unassigned) [Compound 258, 2-(3-Chloro-4-fluorophenyl)-N^5-(3-(difluoromethyl)-1-methylcyclobutyl)-6,7-dihydropyrazolo[1,5-a]pyrazine-3,5(4H)-dicarboxamide]: the IC50 was 0.7 nM on CK1ε (read-out: CK1ε), 0.01 to 10 nM at CK1ε (read-out: CK1ε IC50 range), 0.5 nM at CK1δ (read-out: CK1δ) and 0.01 to 10 nM at CK1δ (read-out: CK1δ IC50 range).
Consider `NC(=O)c1c(-c2cccc(F)c2)nn2c1CN(C(=O)Nc1ccc(F)cc1Cl)CC2` [Compound 32, N^5-(2-Chloro-4-fluorophenyl)-2-(3-fluorophenyl)-6,7-dihydropyrazolo[1,5-a]pyrazine-3,5(4H)-dicarboxamide], for which the IC50 on CK1ε (read-out: CK1ε IC50 range) and at CK1δ (read-out: CK1δ IC50 range) was 10 to 100 nM throughout.
For the compound `CC(C)(O)[C@H](F)CNC(=O)N1CCn2nc(-c3ccc(Cl)c(Cl)c3)c(C(N)=O)c2C1` [Compound 338, (R)-2-(3,4-Dichlorophenyl)-N^5-(2-fluoro-3-hydroxy-3-methylbutyl)-6,7-dihydropyrazolo[1,5-a]pyrazine-3,5(4H)-dicarboxamide], the IC50 on CK1ε (read-out: CK1ε IC50 range) and on CK1δ (read-out: CK1δ IC50 range) was 0.01 to 10 nM throughout.
As to `NC(=O)c1c(-c2cccc(Cl)c2)nn2c1CN(C(=O)NC1(C(F)F)CC(F)(F)C1)CC2` [Compound 306, 2-(3-Chlorophenyl)-N^5-(1-(difluoromethyl)-3,3-difluorocyclobutyl)-6,7-dihydropyrazolo[1,5-a] pyrazine-3,5(4H)-dicarboxamide], the IC50 on CK1ε (read-out: CK1ε IC50 range) and on CK1δ (read-out: CK1δ IC50 range) was 0.01 to 10 nM in each case.
With `NC(=O)c1c(-c2ccc(F)c(Cl)c2)nn2c1CN(C(=O)NC1CC(F)(F)C1)CC2C(F)(F)F` (single isomer, unassigned) [Compound A126, 2-(3-Chloro-4-fluorophenyl)-N^5-(3,3-difluorocyclobutyl)-7-(trifluoromethyl)-6,7-dihydropyrazolo[1,5-a]pyrazine-3,5(4H)-dicarboxamide], the IC50 at CK1ε (read-out: CK1ε IC50 range) and at CK1δ (read-out: CK1δ IC50 range) was 0.01 to 10 nM throughout.

The values are drawn from patent US9273058B2 (BRISTOL-MYERS SQUIBB COMPANY, priority 2013, dated 2016).
